Assay results reported in BigSolDB 2.1.

Cc1cc(N)n(-c2ccccc2)n1
solubility (mole fraction)
Conditions	in 2-butanone	in acetonitrile	in ethanol	in isopropanol	in methanol	in n-propanol
283.15 K	0.0482	0.124	0.0766	0.056	0.0852	0.0705
285.65 K	0.0511	0.13	0.0811	0.0593	0.089	0.0749
288.15 K	0.0546	0.137	0.0854	0.0632	0.0938	0.0795
290.65 K	0.0581	0.144	0.0903	0.0672	0.0988	0.0839
293.15 K	0.0618	0.15	0.0955	0.0711	0.104	0.0889
295.65 K	0.0653	0.157	0.101	0.0755	0.109	0.0946
298.15 K	0.0694	0.164	0.107	0.0802	0.115	0.0997
300.65 K	0.0736	0.172	0.113	0.0851	0.121	0.105
303.15 K	0.0784	0.18	0.119	0.0906	0.127	0.112
305.65 K	0.0829	0.189	0.126	0.0957	0.134	0.118
308.15 K	0.0881	0.198	0.132	0.102	0.14	0.125
310.65 K	0.0931	0.206	0.139	0.108	0.147	0.132
313.15 K	0.0989	0.216	0.147	0.114	0.154	0.139
315.65 K	0.105	0.226	0.154	0.121	0.162	0.147
318.15 K	0.111	0.236	0.163	0.129	0.171	0.155
